Test results from article PMC5951806, “Rapid labelling and covalent inhibition of intracellular native proteins using ligand-directed N-acyl-N-alkyl sulfonamide” (Nature Communications, 2018).

Legend:
Experiment in all cases: TMT LC-MSMS of 11-labelled proteins
Type in all cases: cell-based
[1] = molecular target: Dolichyl-diphosphooligosaccharide--protein glycosyltransferase subunit 1 (RPN1) (Homo sapiens, UniProt P04843)
Text: (§1) Supplement 41467_2018_4343_MOESM4_ESM.xlsx, sheet "Exp3" | column: Abundance Ratio: (11) / (11 with PU-H71); Abundance Ratio: (11) / (DMSO); Abundances (Grouped): 11; Abundances (Grouped): 11 with PU-H71

Peroxiredoxin-4 (PRDX4) = molecular target: T1, Peroxiredoxin-4 (PRDX4) (Homo sapiens, UniProt Q13162)
T1 sequence (Q13162 38-271): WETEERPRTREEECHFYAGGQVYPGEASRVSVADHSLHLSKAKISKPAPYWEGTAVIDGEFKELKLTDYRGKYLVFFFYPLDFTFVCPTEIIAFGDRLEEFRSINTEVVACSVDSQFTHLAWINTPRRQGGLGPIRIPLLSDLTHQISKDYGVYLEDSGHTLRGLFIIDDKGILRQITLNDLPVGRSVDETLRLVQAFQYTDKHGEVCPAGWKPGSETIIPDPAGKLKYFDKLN
Text: as §1

protein MAL2 (MAL2) = protein MAL2 (MAL2) (Homo sapiens, UniProt Q969L2); on Abundance Ratio: (11) / (11 with PU-H71): test concentration or dose not given here
Text: as §1

[2] = molecular target: T2, Monocarboxylate transporter 4 (SLC16A3) (Homo sapiens, UniProt O15427); on Abundance Ratio: (11) / (11 with PU-H71): test concentration or dose not given here; on Abundance Ratio: (11) / (DMSO): test concentration or dose not given here
T2 sequence (O15427 1-465): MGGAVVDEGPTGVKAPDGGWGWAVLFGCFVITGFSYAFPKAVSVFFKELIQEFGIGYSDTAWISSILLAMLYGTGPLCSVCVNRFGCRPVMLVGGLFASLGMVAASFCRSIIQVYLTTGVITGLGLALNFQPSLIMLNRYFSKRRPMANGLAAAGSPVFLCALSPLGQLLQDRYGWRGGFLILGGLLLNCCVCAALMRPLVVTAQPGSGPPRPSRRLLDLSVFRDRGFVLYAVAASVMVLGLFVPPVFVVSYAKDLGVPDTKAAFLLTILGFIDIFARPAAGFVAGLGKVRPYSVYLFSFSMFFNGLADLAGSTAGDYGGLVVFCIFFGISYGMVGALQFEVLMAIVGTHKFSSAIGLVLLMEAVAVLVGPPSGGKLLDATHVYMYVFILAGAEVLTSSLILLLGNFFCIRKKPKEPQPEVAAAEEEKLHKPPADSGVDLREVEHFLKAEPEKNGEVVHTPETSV
Text: as §1

[3] = molecular target: T3, Phosphate carrier protein, mitochondrial (SLC25A3) (Homo sapiens, UniProt Q00325); on Abundance Ratio: (11) / (11 with PU-H71): test concentration or dose not given here; on Abundance Ratio: (11) / (DMSO): test concentration or dose not given here
T3 sequence (Q00325 50-362): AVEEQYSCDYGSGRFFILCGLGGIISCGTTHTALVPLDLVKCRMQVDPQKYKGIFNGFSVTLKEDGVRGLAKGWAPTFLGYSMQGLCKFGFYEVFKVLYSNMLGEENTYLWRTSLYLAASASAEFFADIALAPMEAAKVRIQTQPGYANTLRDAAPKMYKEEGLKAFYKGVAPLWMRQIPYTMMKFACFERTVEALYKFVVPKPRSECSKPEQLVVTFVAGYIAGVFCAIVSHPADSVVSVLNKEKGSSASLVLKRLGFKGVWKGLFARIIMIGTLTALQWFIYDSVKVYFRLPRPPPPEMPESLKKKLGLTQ
Text: as §1

[4] = molecular target: T4, Isoform 3 of Hexokinase-1 (HK1) (Homo sapiens, UniProt P19367); on Abundance Ratio: (11) / (DMSO): test concentration or dose not given here
T4 sequence (P19367 1-921 isoform P19367-3): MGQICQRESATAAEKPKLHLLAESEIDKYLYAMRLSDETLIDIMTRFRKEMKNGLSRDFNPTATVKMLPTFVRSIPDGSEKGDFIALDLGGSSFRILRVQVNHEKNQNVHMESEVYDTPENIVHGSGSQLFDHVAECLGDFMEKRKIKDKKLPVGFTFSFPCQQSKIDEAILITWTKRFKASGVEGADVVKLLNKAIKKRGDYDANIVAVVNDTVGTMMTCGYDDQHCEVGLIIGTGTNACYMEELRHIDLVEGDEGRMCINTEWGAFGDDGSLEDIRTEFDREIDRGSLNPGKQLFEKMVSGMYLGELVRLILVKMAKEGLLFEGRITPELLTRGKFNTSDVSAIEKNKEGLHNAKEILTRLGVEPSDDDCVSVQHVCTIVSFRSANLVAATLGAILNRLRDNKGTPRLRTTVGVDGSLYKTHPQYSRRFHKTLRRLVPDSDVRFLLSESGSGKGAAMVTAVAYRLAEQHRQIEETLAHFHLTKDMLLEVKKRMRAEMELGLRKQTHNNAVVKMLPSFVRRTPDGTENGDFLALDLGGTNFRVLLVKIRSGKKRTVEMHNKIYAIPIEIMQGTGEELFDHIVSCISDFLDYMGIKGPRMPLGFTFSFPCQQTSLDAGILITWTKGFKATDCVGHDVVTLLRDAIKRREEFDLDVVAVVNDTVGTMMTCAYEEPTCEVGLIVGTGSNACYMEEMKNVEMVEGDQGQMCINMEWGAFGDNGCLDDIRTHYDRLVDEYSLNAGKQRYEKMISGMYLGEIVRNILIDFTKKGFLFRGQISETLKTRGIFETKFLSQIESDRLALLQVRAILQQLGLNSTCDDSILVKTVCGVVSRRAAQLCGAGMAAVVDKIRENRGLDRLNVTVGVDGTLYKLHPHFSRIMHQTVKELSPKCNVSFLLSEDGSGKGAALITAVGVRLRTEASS
Text: as §1

Chain of Dolichyl-diphosphooligosaccharide--protein glycosyltransferase subunit 1 (RPN1) (P04843 24-607): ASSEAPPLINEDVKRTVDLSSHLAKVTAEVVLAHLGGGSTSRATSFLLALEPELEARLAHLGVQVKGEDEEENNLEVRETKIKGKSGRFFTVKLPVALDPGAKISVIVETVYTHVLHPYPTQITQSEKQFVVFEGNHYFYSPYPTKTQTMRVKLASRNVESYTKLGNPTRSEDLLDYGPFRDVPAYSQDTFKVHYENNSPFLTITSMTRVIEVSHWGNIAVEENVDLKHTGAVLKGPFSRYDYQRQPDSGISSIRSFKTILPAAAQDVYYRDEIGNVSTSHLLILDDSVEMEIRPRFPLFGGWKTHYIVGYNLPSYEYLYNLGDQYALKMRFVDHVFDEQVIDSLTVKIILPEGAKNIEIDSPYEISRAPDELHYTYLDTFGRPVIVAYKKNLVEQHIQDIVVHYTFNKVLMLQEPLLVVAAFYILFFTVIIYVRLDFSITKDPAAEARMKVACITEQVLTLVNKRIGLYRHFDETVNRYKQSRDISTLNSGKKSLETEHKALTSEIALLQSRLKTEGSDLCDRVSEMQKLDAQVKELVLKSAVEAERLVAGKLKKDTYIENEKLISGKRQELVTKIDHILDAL
Chain of Dolichyl-diphosphooligosaccharide--protein glycosyltransferase subunit 1 (RPN1) (P39656 43-456 partner): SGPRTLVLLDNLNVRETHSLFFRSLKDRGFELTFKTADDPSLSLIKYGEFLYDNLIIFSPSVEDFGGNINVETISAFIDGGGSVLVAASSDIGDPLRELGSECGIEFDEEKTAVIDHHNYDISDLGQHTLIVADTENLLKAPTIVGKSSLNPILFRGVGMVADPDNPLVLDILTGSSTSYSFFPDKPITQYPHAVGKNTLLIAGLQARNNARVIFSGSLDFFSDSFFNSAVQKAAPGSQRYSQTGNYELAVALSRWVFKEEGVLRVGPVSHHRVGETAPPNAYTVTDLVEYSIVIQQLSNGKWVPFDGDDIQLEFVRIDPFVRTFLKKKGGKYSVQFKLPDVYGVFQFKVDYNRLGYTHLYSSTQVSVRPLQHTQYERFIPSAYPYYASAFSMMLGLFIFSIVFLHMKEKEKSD
Chain of Dolichyl-diphosphooligosaccharide--protein glycosyltransferase subunit 1 (RPN1) (P04844 23-631 partner): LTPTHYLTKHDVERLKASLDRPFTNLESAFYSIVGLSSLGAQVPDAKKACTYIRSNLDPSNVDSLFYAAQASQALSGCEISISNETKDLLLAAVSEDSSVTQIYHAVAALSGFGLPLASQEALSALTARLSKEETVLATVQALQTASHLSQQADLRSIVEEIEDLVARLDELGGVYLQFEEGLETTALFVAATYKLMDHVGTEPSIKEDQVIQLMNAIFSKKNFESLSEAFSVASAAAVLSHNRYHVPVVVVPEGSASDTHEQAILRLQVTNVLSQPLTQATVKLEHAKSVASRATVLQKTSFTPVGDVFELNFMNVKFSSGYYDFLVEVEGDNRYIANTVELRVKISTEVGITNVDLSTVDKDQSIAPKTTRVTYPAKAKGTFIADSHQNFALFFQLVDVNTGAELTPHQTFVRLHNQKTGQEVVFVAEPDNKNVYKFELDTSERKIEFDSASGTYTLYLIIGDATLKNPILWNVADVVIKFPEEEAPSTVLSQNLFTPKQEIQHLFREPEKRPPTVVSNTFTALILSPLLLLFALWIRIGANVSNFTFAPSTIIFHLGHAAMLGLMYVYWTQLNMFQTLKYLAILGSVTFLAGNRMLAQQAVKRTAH
Chain of Dolichyl-diphosphooligosaccharide--protein glycosyltransferase subunit 1 (RPN1) (P61803 whole entry partner): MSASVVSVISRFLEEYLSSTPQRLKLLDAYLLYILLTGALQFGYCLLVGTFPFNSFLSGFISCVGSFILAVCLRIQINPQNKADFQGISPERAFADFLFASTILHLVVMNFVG
Chain of Dolichyl-diphosphooligosaccharide--protein glycosyltransferase subunit 1 (RPN1) (P61165 whole entry partner): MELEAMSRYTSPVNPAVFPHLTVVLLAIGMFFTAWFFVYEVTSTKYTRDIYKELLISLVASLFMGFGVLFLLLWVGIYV
Chain of Dolichyl-diphosphooligosaccharide--protein glycosyltransferase subunit 1 (RPN1) (P0C6T2 whole entry partner): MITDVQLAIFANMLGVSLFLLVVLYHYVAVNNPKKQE
Chain of protein MAL2 (MAL2) (Q969L2 whole entry): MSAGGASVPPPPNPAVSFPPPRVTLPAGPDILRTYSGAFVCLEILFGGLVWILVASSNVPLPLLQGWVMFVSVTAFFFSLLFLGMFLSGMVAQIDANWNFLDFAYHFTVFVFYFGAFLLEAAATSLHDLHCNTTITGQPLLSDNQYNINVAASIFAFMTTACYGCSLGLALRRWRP

Abundance Ratio: (11) / (11 with PU-H71) ([1]; Exp3): 0.849
Abundance Ratio: (11) / (DMSO) ([1]; Exp3): 2.221
Abundances (Grouped): 11 ([1]; Exp3): 38.2
Abundances (Grouped): 11 with PU-H71 ([1]; Exp3, with PU-H71): 45
Abundance Ratio: (11) / (11 with PU-H71) (Peroxiredoxin-4 (PRDX4); Exp3): 0.973
Abundance Ratio: (11) / (DMSO) (Peroxiredoxin-4 (PRDX4); Exp3): 2.612
Abundances (Grouped): 11 (Peroxiredoxin-4 (PRDX4); Exp3): 25.6
Abundances (Grouped): 11 with PU-H71 (Peroxiredoxin-4 (PRDX4); Exp3, with PU-H71): 26.3
Abundance Ratio: (11) / (11 with PU-H71) (protein MAL2 (MAL2); Exp3): 0.751
Abundance Ratio: (11) / (DMSO) (protein MAL2 (MAL2); Exp3): 5.099
Abundances (Grouped): 11 (protein MAL2 (MAL2); Exp3): 71.9
Abundances (Grouped): 11 with PU-H71 (protein MAL2 (MAL2); Exp3, with PU-H71): 95.8
Abundance Ratio: (11) / (11 with PU-H71) ([2]; Exp3): 0.921
Abundance Ratio: (11) / (DMSO) ([2]; Exp3): 12.228
Abundances (Grouped): 11 ([2]; Exp3): 353.4
Abundances (Grouped): 11 with PU-H71 ([2]; Exp3, with PU-H71): 383.7
Abundance Ratio: (11) / (11 with PU-H71) ([3]; Exp3): 0.732
Abundance Ratio: (11) / (DMSO) ([3]; Exp3): 2.193
Abundances (Grouped): 11 ([3]; Exp3): 121.3
Abundances (Grouped): 11 with PU-H71 ([3]; Exp3, with PU-H71): 165.7
Abundance Ratio: (11) / (11 with PU-H71) ([4]; Exp3): 1.072
Abundance Ratio: (11) / (DMSO) ([4]; Exp3): 2.893
Abundances (Grouped): 11 ([4]; Exp3): 29.8
Abundances (Grouped): 11 with PU-H71 ([4]; Exp3, with PU-H71): 27.8
Compound: CC(=O)Oc1ccc2c(c1)Oc1cc(OC(C)=O)ccc1C21OC(=O)c2cc(C(=O)NCCOCCOCCNC(=O)CCCC(=O)N(CC#N)S(=O)(=O)c3ccc(C(=O)NCCCn4c(Sc5cc6c(cc5I)OCO6)nc5c(N)ncnc54)cc3)ccc21 [compound 11]
